Earlier results on 68 compounds are cited in PMC12525602, “Identification of Selective α-Glucosidase Inhibitors via Virtual Screening with Machine Learning” (Molecules, 2025).

In the first series the test system is α-glucosidase. The following applies: 300-compound dataset of reported inhibitors and ineffective compounds, Table S4; cited from earlier work.
With `COc1cc(-c2oc3cc(O)cc(O)c3c(=O)c2O[C@@H]2O[C@H](CO[C@@H]3O[C@@H](C)[C@H](O)[C@@H](O)[C@H]3O)[C@@H](O)[C@H](O)[C@H]2O)ccc1O` [compound 2, C[C@H]1[C@H](O)[C@@H](O)[C@@H](O)[C@H](OC[C@@H]2[C@@H](O)[C@H](O)[C@@H](O)[C@H](OC3=C(C4=CC(OC)=C(O)C=C4)OC5=CC(O)=CC(O)=C5C3=O)O2)O1], the “activity (label in modeling dataset)” value is on record as 0.
In the case of `Cc1ccc(Nc2nnc(-c3cc4cc(C#N)ccc4[nH]3)s2)cc1` [compound 4, CC(C=C1)=CC=C1NC(S2)=NN=C2C3=CC4=CC(C#N)=CC=C4N3], the “activity (label in modeling dataset)” value is 0.

The series is the same for the next values; noted with them: Table S5 modeling dataset; activity label 1 = active, 0 = inactive; cited from earlier work.
On to `N#Cc1c(-c2ccc(Cl)cc2)cc(-c2ccc(Cl)cc2)c(C#N)c1N` [compound 131], for which the activity is reported as 0.
Consider `CC1CCCN(c2ccc(/C=N/Nc3nc(-c4ccccc4)cs3)cc2)C1` (stereo not shown) [compound 119], for which the activity is 0.
For `Brc1ccc(CSc2nnc(COc3cccc4cccnc34)o2)cc1` [compound 107], the activity is 0.
Consider `COc1cc(/C=C2\CC(=O)N(C(=O)CN3CCOCC3)C2=O)ccc1O` [compound 137], for which the activity is 0.
Regarding `CC1(C)CC[C@]2(C(=O)O)CC[C@]3(C)C(=CC[C@@H]4[C@@]5(C)CC[C@H](O)C(C)(C)[C@@H]5CC[C@]43C)[C@@H]2C1` [compound 126], the activity is reported as 0.
For `O=C(NNS(=O)(=O)c1ccc([N+](=O)[O-])cc1)c1cc2cc(F)ccc2[nH]1` [compound 109], the activity is 0.
Consider `COc1ccc(S(=O)(=O)NNC(=O)c2cc3cc(F)ccc3[nH]2)cc1` [compound 105], for which the activity was 0.
As for `N#Cc1c(-c2ccc(Cl)cc2)cc(-c2ccc([N+](=O)[O-])cc2)c(C#N)c1N` [compound 103], the activity is on record as 0.
For `O=C(NNS(=O)(=O)c1cccc(Cl)c1)c1cc2cc(F)ccc2[nH]1` [compound 136], the activity is given as 0.

The same series, now with this note: activity label in the 300-compound modeling dataset (Table S5); 1 = active, 0 = inactive; cited from earlier work.
Consider `C[C@@H]1O[C@@H](O[C@H]2C(=O)c3c(O)cc(O)cc3O[C@@H]2c2ccc(O)c(O)c2)[C@H](O)[C@H](O)[C@H]1O` [compound 229], for which the activity is given as 1.
With `O=C(O)/C=C/c1ccc(O)cc1` [compound 195], the activity is on record as 1.
Regarding `COc1ccc(Br)cc1-c1nnc(/N=C(/CSc2nnc3c(n2)[nH]c2ccccc23)c2ccc(C)cc2)s1` [compound 189], the activity is listed as 1.
For `Nc1ccc(CCC(=O)N2CC[C@@H](O)[C@@H](O)C2)cc1` [compound 190], the activity is on record as 1.
`O=C(NNS(=O)(=O)c1ccc(Cl)cc1)c1cc2cc(F)ccc2[nH]1` [compound 191]: the activity was 1.
On to `O=c1c(O)c(-c2ccc(O)cc2)oc2c(O)c(O)cc(O)c12` [compound 219], for which the activity was 1.
Consider `O=[N+]([O-])c1ccccc1-c1nnc(/N=C(/CSc2nnc3c(n2)[nH]c2ccccc23)c2ccc(-c3ccccc3)cc2)s1` [compound 223], for which the activity is recorded as 1.
For `COc1cccc(C(=O)C2C(O)c3ccccc3S(=O)(=O)N2CC(=O)Nc2cccc(C)c2)c1` (stereo not shown) [compound 196], the activity is listed as 1.
Take `Cc1ccc(-c2cc(C(F)(F)F)nn2-c2ccc(S(=O)(=O)NC(=O)c3ccc(Br)cc3)cc2)cc1` [compound 208]: the activity is 1.
Turning to `COc1ccc(Br)cc1-c1nnc(/N=C(/CSc2nnc3c(n2)[nH]c2ccccc23)c2ccccc2[N+](=O)[O-])s1` [compound 199], the activity is 1.
In the case of `CCOC(=O)c1ccc(-n2c(/C=C3\OC(=O)c4c3cc(C)[nH]c4=O)ccc2CO)cc1` [compound 228], the activity is 1.

The same series, now with this note: activity label of the 300-compound modeling dataset, Table S5; cited from earlier work.
As for `O=c1c(O)c(-c2ccc(O)cc2)oc2cc(O)ccc12` [compound 252], the activity is listed as 1.
With `O=C1CC(/C=N/Nc2ccc(F)cc2)Oc2ccccc21` (stereo not shown) [compound 235], the activity is reported as 1.
`Brc1ccc(CNc2cccc(-c3nc4ccccc4[nH]3)c2)cn1` [compound 254]: the activity is listed as 1.
Regarding `N#Cc1cccc(N/N=C/C2CC(=O)c3ccccc3O2)c1` (stereo not shown) [compound 251], the activity is given as 1.
Consider `O=C(/C=C/c1ccc(Cl)cc1)c1cc2ccccc2oc1=O` [compound 273], for which the activity is 1.
For `O=C(COc1c(I)cc(Cl)c2cccnc12)c1ccc(Br)cc1` [compound 256], the activity was 1.
On to `Cc1ccc(-c2cnc3ccccc3n2)cc1` [compound 257], for which the activity was 1.
Turning to `COc1cccc(CNc2cccc(-c3nc4ccccc4[nH]3)c2)n1` [compound 270], the activity is given as 1.
As to `O=C(N/N=C/C1CC(=O)c2ccccc2O1)c1ccc(O)cc1` (stereo not shown) [compound 250], the activity is 1.
`O=C(/C=C/c1ccc(O)cc1)c1cccc2[nH]c(=O)oc12` [compound 247]: the activity is 1.
For `O=C(COc1c(I)cc(Cl)c2cccnc12)c1ccc(Cl)cc1Cl` [compound 276], the activity is recorded as 1.
On to `Fc1cccc(CNc2cccc(-c3nc4ccccc4[nH]3)c2)c1` [compound 260], for which the activity was 1.

Still in this series, the particulars now being: activity label of the modeling dataset (Table S5), α-glucosidase; 1 = active, 0 = inactive; cited from earlier work.
As for `COc1cc(-c2oc3cc(O)cc(O)c3c(=O)c2O[C@@H]2O[C@H](CO[C@@H]3O[C@@H](C)[C@H](O)[C@@H](O)[C@H]3O)[C@@H](O)[C@H](O)[C@H]2O)ccc1O` [compound 2, C[C@H]1[C@H](O)[C@@H](O)[C@@H](O)[C@H](OC[C@@H]2[C@@H](O)[C@H](O)[C@@H](O)[C@H](OC3=C(C4=CC(OC)=C(O)C=C4)OC5=CC(O)=CC(O)=C5C3=O)O2)O1], the activity is reported as 0.
In the case of `Cc1ccc(Nc2nnc(-c3cc4cc(C#N)ccc4[nH]3)s2)cc1` [compound 4, CC(C=C1)=CC=C1NC(S2)=NN=C2C3=CC4=CC(C#N)=CC=C4N3], the activity is recorded as 0.
Turning to `N#Cc1c(-c2ccncc2)cc(-c2ccccn2)c(C#N)c1N` [compound 28], the activity is 0.
For `Clc1cccc(Cn2cc(CSc3nnc(COc4cccc5cccnc45)o3)nn2)c1` [compound 16], the activity was 0.
For the compound `COc1ccc(-n2cc(CSc3nnc(COc4cccc5cccnc45)o3)nn2)cc1` [compound 17], the activity is 0.
As to `O=c1c(OC2OC(CO)C(O)C(O)C2O)c(-c2cc(O)c(O)c(O)c2)oc2cc(O)cc(O)c12` (stereo not shown) [compound 34], the activity is 0.
Turning to `Cc1ccc(-c2cc(-c3cccc([N+](=O)[O-])c3)c(C#N)c(N)c2C#N)cc1` [compound 20], the activity is given as 0.
Turning to `N#Cc1c(-c2ccc(Cl)cc2)cc(-c2ccccn2)c(C#N)c1N` [compound 21], the activity was 0.
For the compound `N#Cc1c(-c2cccnc2)cc(-c2ccccn2)c(C#N)c1N` [compound 42], the activity is listed as 0.
In the case of `N#Cc1c(-c2ccncc2)cc(-c2ccc([N+](=O)[O-])cc2)c(C#N)c1N` [compound 18], the activity is on record as 0.
In the case of `O=C(O)c1ccc(-c2nc3ccc(C(=O)c4ccccc4)cc3[nH]2)cc1` [compound 5], the activity was 0.
`N#Cc1c(-c2ccc([N+](=O)[O-])cc2)cc(-c2cccc([N+](=O)[O-])c2)c(C#N)c1N` [compound 32]: the activity is recorded as 0.

Still in this series, the particulars now being: activity label of the modeling dataset, Table S5 (1 = active, 0 = inactive); cited from earlier work.
For `CC1CCN(c2ccc(/C=N/Nc3nc(-c4ccc(F)cc4F)cs3)cc2)CC1` [compound 84], the activity is 0.
For `BrCCSc1nnc(COc2cccc3cccnc23)o1` [compound 57], the activity was 0.
As to `Brc1ccc(-n2cc(CSc3nnc(COc4cccc5cccnc45)o3)nn2)cc1` [compound 81], the activity was 0.
For `CCSc1nnc(COc2cccc3cccnc23)o1` [compound 63], the activity is given as 0.
As for `C=CCSc1nnc(COc2cccc3cccnc23)o1` [compound 85], the activity is 0.
Turning to `O=[N+]([O-])c1ccc(CSc2nnc(COc3cccc4cccnc34)o2)cc1` [compound 89], the activity is reported as 0.
As to `N#Cc1c(-c2ccc([N+](=O)[O-])cc2)cc(-c2cccnc2)c(C#N)c1N` [compound 75], the activity is reported as 0.
On to `O=[N+]([O-])c1ccc(-n2cc(CSc3nnc(COc4cccc5cccnc45)o3)nn2)cc1` [compound 72], for which the activity was 0.
As to `N#Cc1c(-c2cccc(Cl)c2)cc(-c2cccc([N+](=O)[O-])c2)c(C#N)c1N` [compound 50], the activity is given as 0.
For the compound `Cc1ccc(-c2csc(N/N=C/c3ccc(N4CCCC(C)C4)cc3)n2)cc1` (stereo not shown) [compound 68], the activity is listed as 0.
`Fc1ccc(Cn2cc(CSc3nnc(COc4cccc5cccnc45)o3)nn2)cc1` [compound 69]: the activity is recorded as 0.
With `Clc1ccc(Cn2cc(CSc3nnc(COc4cccc5cccnc45)o3)nn2)cc1` [compound 73], the activity is given as 0.
Take `CCCCCCn1cc(CSc2nnc(COc3cccc4cccnc34)o2)nn1` [compound 77]: the activity is 0.

The same series, now with this note: activity label of the modeling dataset, Table S5; cited from earlier work.
Turning to `O=C(O)CCCCCCCCCCCCCCCO` [compound 160], the activity is on record as 1.
Take `O=[N+]([O-])c1cccc(/C(CSc2nnc3c(n2)[nH]c2ccccc23)=N\c2nnc(-c3cc(Cl)cc(Cl)c3O)s2)c1` [compound 180]: the activity is listed as 1.
Consider `CC(C)=CCC1=C(O)C(CC=C(C)C)(CC=C(C)C)C(=O)C(C(=O)CC(C)C)=C1O` [compound 163], for which the activity was 1.
`CC(C)C1=CC2=CC[C@@H]3[C@](C)(CCC[C@@]3(C)C(=O)O)[C@H]2CC1` [compound 174]: the activity was 1.
With `O=[N+]([O-])c1ccccc1-c1nnc(/N=C(/CSc2nnc3c(n2)[nH]c2ccccc23)c2ccc(Br)cc2Br)s1` [compound 153], the activity is on record as 1.
`COc1cc(-c2oc3cc(O)cc(O)c3c(=O)c2O)ccc1O` [compound 161]: the activity is 1.
Take `COc1cc(/C=N/N=C2\C(=O)Nc3ccccc32)ccc1OCc1cn(Cc2ccccc2C)nn1` [compound 142]: the activity is 0.
For `COc1cc(/C=N/N=C2\C(=O)Nc3ccccc32)ccc1OCc1cn(Cc2ccc(F)cc2)nn1` [compound 144], the activity is reported as 0.

The same series, now with this note: activity label of the modeling dataset, sheet Table S5; 1 = active, 0 = inactive; cited from earlier work.
`Cc1ccc(-n2cc(/C=N\NC(=O)Nc3ccccc3)c(-c3ccc([N+](=O)[O-])cc3)n2)cc1` [compound 299]: the activity is recorded as 1.
For `COc1ccc(/C=N/N=C(/C)c2ccc([N+](=O)[O-])cc2)c(OC)c1` [compound 291], the activity is recorded as 1.
`COC(=O)Cn1c(=O)oc2c(C(=O)/C=C/c3ccc(O)c(F)c3)cccc21` [compound 284]: the activity was 1.
